Like-named read-outs stand apart in the source and are kept apart here.
Assays:
[1] = Single dose pharmacokinetics (SDPK) in female C57BL/6J mice; format: in vivo; details: mouse, plasma, 1 mg/kg, iv
Procedure: This is the single dose pharmacokinetics (PK) study in female C57/BL6 mice. The purpose of this study was to determine the pharmacokinetics of selected compounds following a single intravenous bolus injection in female C57BL/6J mice. Briefly, 3 female C57BL/6J mice (available from Shanghai Lingchang Biotechnology Co., Ltd) were treated with a single dose of compound intravenously at 1 mg/kg (IV). Blood samples were collected at 5 min, 15 min, 30 min, 1 h, 2 h, 4 h, 7 h and 24 h post-dose. Blood samples were placed on wet ice until centrifugation to obtain plasma samples. The compound concentration in plasma samples was determined using LC-MS/MS method. The pharmacokinetic parameters were calculated by non-compartmental analysis.

[2] = tested on: human PBMC; assay: hPBMC cytokine release assay (Luminex, IFN-β); format: cell-based; details: read-out: Agonist_hPBMC_IFN-β_EC50
Procedure: This is the cytokines concentration detection with Luminex assay for human PBMC supernatant. Human peripheral blood mononuclear cells (PBMC) are treated by compounds with appropriate time. Multiple cytokines are released in the supernatant in response to the compound stimulation. Luminex assay can measure the cytokines concentration in supernatant and the compounds activity on human PBMC can be evaluated.
Frozen PBMC was thawed and cultured in PRMI1640 (GIBCO 11875-093) whole medium with […] Heat inactivated-FBS (HI—FBS), 1% NEAA, […] in CO2 incubator overnight. Cells were centrifuged at 400×g for 5 minutes at 4° C. and the pellet was re-suspended with complete RPMI1640 medium to concentration of 1×10^6 cells/ml in cell culture flask T75 (Thermo Fisher Scientific). Compounds were serially diluted with DMSO and distributed to 96-well flat bottom cell plate (Corning 3599) with Echo555. 90 μL/well PBMC cells were seeded into the plates with Multidrop (Thermo Fisher Scientific). After 24 hours of incubation in CO2 incubator, cells were centrifuged at 400×g for 5 minutes at room temperature, 80 μL supernatant each well was collected for cytokines release test with luminex assay of Human custom ProcartaPlex 5-plex kit (Thermo Fisher Scientific PPX-05). 10 μL supernatant or standards were added to a mixture of color-coded beads, 5 μL Biotinylated detection antibodies specific to the analytes of interest were added and formed an antibody-antigen sandwich. 10 μL Phycoerythrin (PE)-conjugated streptavidin is added to the plate and then read signal of each well on the Luminex 200™. The raw data was analyzed by Millipore Analyst Software and cytokine concentrations were generated accordingly. The EC50 of corresponding cytokine such as interferon-β (IFN-β) was calculated by the 4-parameter sigmoidal concentration response model fitting.

[3] = tested on: interferon regulatory factor (IRF) pathway in THP1-Dual™ cells; assay: THP1-Dual reporter gene assay (Agonist_THP1_EC50); format: cell-based; details: Homo sapiens, 20-24 hrs compound treatment, Lucia luciferase (IRF) readout
In short: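 Human THP-1 monocytes with Lucia luciferase under ISG54 minimal promoter plus five ISREs; ~33,000 cells/well with serially diluted compound, final 1% DMSO, 20-24 h at 37 °C. Supernatant Lucia luciferase read by QUANTI-Luc Gold luminescence; viability by CCK-8, A450 after 2 h.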

[4] = female, C57BL/6J, prior art compounds (Table 4)
[5] = 24 hours incubation, IFN-β in supernatant

SMILES	AUC(0-t) [1, 4]	C0 [1, 4]	clearance [1, 4]	EC50 ([2]; prior art compounds (Table 4), IFN-β)	EC50 [3]	AUC(0-t) ([1]; female C57BL/6J mice)	C0 ([1]; female C57BL/6J mice)	clearance ([1]; female C57BL/6J mice)	EC50 [2, 5]
CCn1nc(C)c(O)c1-c1nnc(-c2nc(C(N)=O)cc3c2cnn3C)[nH]1 [AC01, reference compound]	102 ng·h/mL	997 ng/mL	170 mL/min/kg	0.028 µM	–	–	–	–	–
CCn1nc(C)c(O)c1-c1n[nH]c(-c2c(F)c(C(N)=O)n3cc(C)ncc23)n1 [Example 4, 8-[3-(2-ethyl-4-hydroxy-5-methyl-pyrazol-3-yl)-1H-1,2,4-triazol-5-yl]-7-fluoro-3-methyl-pyrrolo[1,2-a]pyrazine-6-carboxamide]	–	–	–	–	0.162 µM	122 ng·h/mL	1720 ng/mL	137 mL/min/kg	–
CCCn1nc(C)c(O)c1-c1n[nH]c(-n2nc(C(N)=O)c3cc(C)ncc32)n1 [Example 31, 1-[3-(4-hydroxy-5-methyl-2-propyl-pyrazol-3-yl)-1H-1,2,4-triazol-5-yl]-5-methyl-pyrazolo[3,4-c]pyridine-3-carboxamide]	–	–	–	–	0.019 µM	597 ng·h/mL	5500 ng/mL	30 mL/min/kg	0.032 µM
Cc1cc2c(C(N)=O)nn(-c3nc(-c4c(O)c(C)nn4CCc4ccccc4)n[nH]3)c2cn1 [Example 40, 1-[3-[4-hydroxy-5-methyl-2-(2-phenylethyl)pyrazol-3-yl]-1H-1,2,4-triazol-5-yl]-5-methyl-pyrazolo[3,4-c]pyridine-3-carboxamide]	–	–	–	–	0.011 µM	151 ng·h/mL	1600 ng/mL	114 mL/min/kg	0.046 µM
CCCn1nc(C)c(O)c1-c1n[nH]c(-c2c(F)c(C(N)=O)n3cc(C)ncc23)n1 [Example 79, 7-fluoro-8-[3-(4-hydroxy-5-methyl-2-propyl-pyrazol-3-yl)-1H-1,2,4-triazol-5-yl]-3-methyl-pyrrolo[1,2-a]pyrazine-6-carboxamide]	–	–	–	–	0.005 µM	150 ng·h/mL	2200 ng/mL	111 mL/min/kg	0.022 µM
CCCn1nc(C)c(O)c1-c1nc(-c2cc(C(N)=O)n3cc(C)ncc23)co1 [Example 94, 8-[2-(4-hydroxy-5-methyl-2-propyl-pyrazol-3-yl)oxazol-4-yl]-3-methyl-pyrrolo[1,2-a]pyrazine-6-carboxamide]	–	–	–	–	0.015 µM	–	–	–	0.006 µM

Reference: patent publication US20250074913A1, “PYRAZOLE DERIVATIVES AS STING AGONISTS” (Hoffmann-La Roche Inc., priority 2022, published 2025)
